Experimental findings from ChEMBL document CHEMBL3045201, “Quantitative Structure-Activity Relationships of Fluazinam and Related Fungicidal N-phenylpyridinamines” (1996) are described below.

Each structure is given as a SMILES string. Calls of active or inactive are those of the source. No cut-off for these calls is given here. Some results are limits rather than exact numbers.

Experiment [1] has as its system Rhizoctonia solani. Nature of the experiment: Fungicidal activity against Rhizoctonia solani infected in 24 hr compound pre-treated Oryza sativa cv. Chukyoasahi assessed as disease control measured after 10 days. Format: functional.
Experiment [2] deals with Podosphaera fuliginea. The experiment is described as follows: Fungicidal activity against Podosphaera fuliginea infected in 24 hr compound pre-treated cucumber plant assessed as disease control measured after 10 days. In kind it is functional.
The test system of experiment [3] is Pyricularia oryzae. The experiment is described as follows: Fungicidal activity against Magnaporthe oryzae infected in 24 hr compound pre-treated Oryza sativa cv. Chukyoasahi assessed as disease control measured after 10 days. In kind it is functional.
The subject of experiment [4] is Botrytis cinerea. Nature of the experiment: Fungicidal activity against Botryotinia fuckeliana assessed as mitochondrial uncoupling activity. In kind it is functional, organism-based.
Experiment [5] deals with Pyricularia oryzae. Nature of the experiment: Fungicidal activity against Magnaporthe oryzae assessed as mitochondrial uncoupling activity. In kind it is functional, organism-based.
Experiment [6] has as its system Rhizoctonia solani. Nature of the experiment: Fungicidal activity against Rhizoctonia solani assessed as SH-inhibition. In kind it is functional, organism-based.
In experiment [7] the test system is Podosphaera fuliginea. Nature of the experiment: Fungicidal activity against Podosphaera fuliginea assessed as SH-inhibition. Format: functional, organism-based.
In experiment [8] the test system is Botrytis cinerea. The experiment is described as follows: Fungicidal activity against Botryotinia fuckeliana assessed as SH-inhibition. Format: functional, organism-based.
In experiment [9] the test system is Pyricularia oryzae. The experiment is described as follows: Fungicidal activity against Magnaporthe oryzae assessed as SH-inhibition. In kind it is functional, organism-based.
A further experiment is filed under the species Rattus norvegicus. Nature of the experiment: Inhibition of mitochondrial uncoupling in Rattus norvegicus (rat). In kind it is functional, organism-based.
Experiment [10] deals with Rhizoctonia solani. The experiment is described as follows: Fungicidal activity against Rhizoctonia solani assessed as mitochondrial uncoupling activity. Format: functional, organism-based.
For experiment [11], the system named is Podosphaera fuliginea. Nature of the experiment: Fungicidal activity against Podosphaera fuliginea assessed as mitochondrial uncoupling activity. In kind it is functional, organism-based.

`CCCOc1c(C(F)(F)F)cc([N+](=O)[O-])c(Nc2ncc(C(F)(F)F)cc2Cl)c1[N+](=O)[O-]`: the I90 is reported as 16 ppm in the experiment on Rhizoctonia solani [1], over 500 ppm in the experiment on Podosphaera fuliginea [2] and 63 ppm in the experiment with Pyricularia oryzae [3].
In the same order, the values of `O=[N+]([O-])c1cc(C(F)(F)F)c(OCC(F)(F)F)c([N+](=O)[O-])c1Nc1ncc(C(F)(F)F)cc1Cl` are 63 ppm, 16 ppm and over 500 ppm.
On the same counts, the results for `COc1c(C(F)(F)F)cc([N+](=O)[O-])c(Nc2ncc(C(F)(F)F)cc2Cl)c1[N+](=O)[O-]` are 16 ppm, 63 ppm and under 16 ppm.
On the same counts, the results for `CSc1c(C(F)(F)F)cc([N+](=O)[O-])c(Nc2ncc(C(F)(F)F)cc2Cl)c1[N+](=O)[O-]` are 16 ppm, 16 ppm and under 16 ppm.
Take `O=[N+]([O-])c1cc(C(F)(F)F)c(Cl)c([N+](=O)[O-])c1Nc1ncc(C(F)(F)F)cc1Cl` [FLUAZINAM]: the outcome with Botrytis cinerea [4] and with Podosphaera fuliginea [7] was inactive. The result in the experiment on Pyricularia oryzae [5], in the experiment on Rhizoctonia solani [6], in the experiment with Botrytis cinerea [8], in the experiment with Pyricularia oryzae [9], in the experiment filed under Rattus norvegicus and with Rhizoctonia solani [10] was Active. The outcome with Podosphaera fuliginea [11] was Active. The I90 is 63 ppm with Podosphaera fuliginea [2] and under 16 ppm with Pyricularia oryzae [3].
Regarding `O=[N+]([O-])c1cc(C(F)(F)F)c(I)c([N+](=O)[O-])c1Nc1ncc(C(F)(F)F)cc1Cl`, the I90 is over 500 ppm in the experiment on Rhizoctonia solani [1], over 500 ppm with Podosphaera fuliginea [2] and 16 ppm with Pyricularia oryzae [3].
For `CC(C)COc1c(C(F)(F)F)cc([N+](=O)[O-])c(Nc2ncc(C(F)(F)F)cc2Cl)c1[N+](=O)[O-]`, the I90 in the experiment on Rhizoctonia solani [1] is on record as 63 ppm; in the experiment with Podosphaera fuliginea [2] it was over 500 ppm; with Pyricularia oryzae [3], over 500 ppm.
With `C[S+]([O-])c1c(C(F)(F)F)cc([N+](=O)[O-])c(Nc2ncc(C(F)(F)F)cc2Cl)c1[N+](=O)[O-]` (centres undefined), the figures for the I90 with Rhizoctonia solani [1], with Podosphaera fuliginea [2] and in the experiment on Pyricularia oryzae [3] were over 500 ppm, over 500 ppm and 63 ppm, respectively.
As to `Nc1c(C(F)(F)F)cc([N+](=O)[O-])c(Nc2ncc(C(F)(F)F)cc2Cl)c1[N+](=O)[O-]`, the I90 in the experiment with Rhizoctonia solani [1], in the experiment with Podosphaera fuliginea [2] and with Pyricularia oryzae [3] was over 500 ppm throughout.
Take `CCCCOc1c(C(F)(F)F)cc([N+](=O)[O-])c(Nc2ncc(C(F)(F)F)cc2Cl)c1[N+](=O)[O-]`: the I90 in the experiment with Rhizoctonia solani [1], in the experiment with Podosphaera fuliginea [2] and in the experiment on Pyricularia oryzae [3] was over 500 ppm each time.
Turning to `CCOc1c(C(F)(F)F)cc([N+](=O)[O-])c(Nc2ncc(C(F)(F)F)cc2Cl)c1[N+](=O)[O-]`, the I90 in the experiment with Rhizoctonia solani [1], with Podosphaera fuliginea [2] and with Pyricularia oryzae [3] was 16 ppm in each case.
`O=[N+]([O-])c1cc(C(F)(F)F)c(Br)c([N+](=O)[O-])c1Nc1ncc(C(F)(F)F)cc1Cl`: the I90 with Rhizoctonia solani [1] turned out to be 63 ppm; in the experiment with Podosphaera fuliginea [2] it was 63 ppm; in the experiment on Pyricularia oryzae [3], 16 ppm.
